Laboratory results published in paper PMC10620772, “Design, synthesis, and biological evaluation of new pyrimidine-5-carbonitrile derivatives as novel anti-cancer, dual EGFR^WT/COX-2 inhibitors with docking studies” (RSC Advances, 2023).

Tests used:
Type in all cases: cell-based, human
RPMI-8226 = assay: NCI60 antitumor screening; details: Homo sapiens; 10 μM single dose; RPMI-8226 (leukaemia); read-out: growth inhibition percent (GI%)
EKVX = assay: NCI60 antitumor screening; details: Homo sapiens; 10 μM single dose; EKVX (non-small cell lung cancer); read-out: growth inhibition percent (GI%)
HOP-62 = assay: NCI60 antitumor screening; details: for inhibition at 10 µM: Homo sapiens, 10 μM single dose, HOP-62 (non-small cell lung cancer), read-out: growth inhibition percent (GI%)
HOP-92 = assay: NCI60 antitumor screening; details: Homo sapiens; 10 μM single dose; HOP-92 (non-small cell lung cancer); read-out: growth inhibition percent (GI%)
NCI-H226 = assay: NCI60 antitumor screening; details: for inhibition at 10 µM: Homo sapiens, 10 μM single dose, NCI-H226 (non-small cell lung cancer), read-out: growth inhibition percent (GI%)
NCI-H23 = assay: NCI60 antitumor screening; details: Homo sapiens; 10 μM single dose; NCI-H23 (non-small cell lung cancer); read-out: growth inhibition percent (GI%)
NCI-H322M = assay: NCI60 antitumor screening; details: Homo sapiens; 10 μM single dose; NCI-H322M (non-small cell lung cancer); read-out: growth inhibition percent (GI%)
NCI-H522 = assay: NCI60 antitumor screening; details: Homo sapiens; 10 μM single dose; NCI-H522 (non-small cell lung cancer); read-out: growth inhibition percent (GI%)
COLO 205 = assay: NCI60 antitumor screening; details: Homo sapiens; 10 μM single dose; COLO 205 (colon cancer); read-out: growth inhibition percent (GI%)
HCC-2998 = assay: NCI60 antitumor screening; details: Homo sapiens; 10 μM single dose; HCC-2998 (colon cancer); read-out: growth inhibition percent (GI%)
HCT-15 = assay: NCI60 antitumor screening; details: Homo sapiens; 10 μM single dose; HCT-15 (colon cancer); read-out: growth inhibition percent (GI%)
KM12 = assay: NCI60 antitumor screening; details: Homo sapiens; 10 μM single dose; KM12 (colon cancer); read-out: growth inhibition percent (GI%)
SW-620 = assay: NCI60 antitumor screening; details: Homo sapiens; 10 μM single dose; SW-620 (colon cancer); read-out: growth inhibition percent (GI%)
SNB-19 = assay: NCI60 antitumor screening; details: Homo sapiens; 10 μM single dose; SNB-19 (CNS cancer); read-out: growth inhibition percent (GI%)
SNB-75 = assay: NCI60 antitumor screening; details: for inhibition at 10 µM: Homo sapiens, 10 μM single dose, SNB-75 (CNS cancer), read-out: growth inhibition percent (GI%)
MALME-3M = assay: NCI60 antitumor screening; details: Homo sapiens; 10 μM single dose; MALME-3M (melanoma); read-out: growth inhibition percent (GI%)
SK-MEL-2 = assay: NCI60 antitumor screening; details: Homo sapiens; 10 μM single dose; SK-MEL-2 (melanoma); read-out: growth inhibition percent (GI%)
UACC-257 = assay: NCI60 antitumor screening; details: Homo sapiens; 10 μM single dose; UACC-257 (melanoma); read-out: growth inhibition percent (GI%)
UACC-62 = assay: NCI60 antitumor screening; details: Homo sapiens; 10 μM single dose; UACC-62 (melanoma); read-out: growth inhibition percent (GI%)
IGROV1 = assay: NCI60 antitumor screening; details: Homo sapiens, IGROV-1; 10 μM single dose; IGROV1 (ovarian cancer); read-out: growth inhibition percent (GI%)
OVCAR-5 = assay: NCI60 antitumor screening; details: Homo sapiens; 10 μM single dose; OVCAR-5 (ovarian cancer); read-out: growth inhibition percent (GI%)
OVCAR-8 = assay: NCI60 antitumor screening; details: Homo sapiens; 10 μM single dose; OVCAR-8 (ovarian cancer); read-out: growth inhibition percent (GI%)
SK-OV-3 = assay: NCI60 antitumor screening; details: Homo sapiens; 10 μM single dose; SK-OV-3 (ovarian cancer); read-out: growth inhibition percent (GI%)
ACHN = assay: NCI60 antitumor screening; details: Homo sapiens; 10 μM single dose; ACHN (renal cancer); read-out: growth inhibition percent (GI%)
CAKI-1 = assay: NCI60 antitumor screening; details: Homo sapiens; 10 μM single dose; CAKI-1 (renal cancer); read-out: growth inhibition percent (GI%)
RXF 393 = assay: NCI60 antitumor screening; details: for inhibition at 10 µM: Homo sapiens, 10 μM single dose, RXF 393 (renal cancer), read-out: growth inhibition percent (GI%)
SN12C = assay: NCI60 antitumor screening; details: Homo sapiens; 10 μM single dose; SN12C (renal cancer); read-out: growth inhibition percent (GI%)
TK-10 = assay: NCI60 antitumor screening; details: Homo sapiens; 10 μM single dose; TK-10 (renal cancer); read-out: growth inhibition percent (GI%)
UO-31 = assay: NCI60 antitumor screening; details: Homo sapiens; 10 μM single dose; UO-31 (renal cancer); read-out: growth inhibition percent (GI%)
DU-145 = assay: NCI60 antitumor screening; details: Homo sapiens, DU-145; read-out: growth inhibition percent (GI%)
MCF7 = assay: NCI60 antitumor screening; details: Homo sapiens; 10 μM single dose; MCF7 (breast cancer); read-out: growth inhibition percent (GI%)
HS 578T = assay: NCI60 antitumor screening; details: for inhibition at 10 µM: Homo sapiens, 10 μM single dose, HS 578T (breast cancer), read-out: growth inhibition percent (GI%)
T-47D = assay: NCI60 antitumor screening; details: Homo sapiens, T47D; 10 μM single dose; T-47D (breast cancer); read-out: growth inhibition percent (GI%)
NCI60 cell lines panel = assay: NCI60 antitumor screening, full panel; details: for inhibition at 10 µM: Homo sapiens, 10 μM single dose, mean over NCI60 cell lines, read-out: Mean growth inhibition percent (GI%)
Procedure, shortened: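 Single-concentration screen at 10 μM across the NCI60 panel (leukaemia, NSCLC, colon, CNS, melanoma, ovarian, renal, prostate, breast). Results are expressed as percent growth inhibition (GI%) of treated lines.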

SMILES	inhibition at 10 µM (RPMI-8226)	inhibition at 10 µM (EKVX)	inhibition at 10 µM (HOP-62)	inhibition at 10 µM (HOP-92)	inhibition at 10 µM (NCI-H226)	inhibition at 10 µM (NCI-H23)	inhibition at 10 µM (NCI-H322M)	inhibition at 10 µM (NCI-H522)	inhibition at 10 µM (COLO 205)	inhibition at 10 µM (HCC-2998)	inhibition at 10 µM (HCT-15)	inhibition at 10 µM (KM12)	inhibition at 10 µM (SW-620)	inhibition at 10 µM (SNB-19)	inhibition at 10 µM (SNB-75)	inhibition at 10 µM (MALME-3M)	inhibition at 10 µM (SK-MEL-2)	inhibition at 10 µM (UACC-257)	inhibition at 10 µM (UACC-62)	inhibition at 10 µM (IGROV1)	further results
N#Cc1c(-c2ccc(F)cc2)nc(SCc2ccc(F)cc2)nc1N1CCN(c2ccccc2)CC1 [4n, 2-((4-Fluorobenzyl)thio)-4-(4-fluorophenyl)-6-(4-phenylpiperazin-1-yl)pyrimidine-5-carbonitrile]	22.3%	18.7%	< 10%	< 10%	< 10%	< 10%	< 10%	10.3%	< 10%	< 10%	< 10%	< 10%	< 10%	< 10%	15.6%	< 10%	10.6%	12.9%	25.8%	< 10%	inhibition at 10 µM (OVCAR-5): < 10%; inhibition at 10 µM (OVCAR-8): < 10%; inhibition at 10 µM (SK-OV-3): < 10%; inhibition at 10 µM (ACHN): < 10%; inhibition at 10 µM (CAKI-1): 16.3%; inhibition at 10 µM (RXF 393): < 10%; inhibition at 10 µM (SN12C): < 10%; inhibition at 10 µM (TK-10): < 10%; inhibition at 10 µM (UO-31): < 10%; inhibition at 10 µM (DU-145): < 10%; inhibition at 10 µM (MCF7): 24.8%; inhibition at 10 µM (HS 578T): < 10%; inhibition at 10 µM (T-47D): 24.3%; inhibition at 10 µM (NCI60 cell lines panel): < 10%
Cc1ccc(CSc2nc(-c3ccc(F)cc3)c(C#N)c(N3CCNCC3)n2)cc1 [4h, 4-(4-Fluorophenyl)-2-((4-methylbenzyl)thio)-6-(piperazin-1-yl)pyrimidine-5-carbonitrile]	< 10%	< 10%	< 10%	< 10%	< 10%	< 10%	< 10%	< 10%	< 10%	< 10%	< 10%	< 10%	< 10%	< 10%	19.5%	< 10%	< 10%	< 10%	< 10%	< 10%	inhibition at 10 µM (OVCAR-5): < 10%; inhibition at 10 µM (OVCAR-8): < 10%; inhibition at 10 µM (SK-OV-3): < 10%; inhibition at 10 µM (ACHN): < 10%; inhibition at 10 µM (CAKI-1): 11.7%; inhibition at 10 µM (RXF 393): < 10%; inhibition at 10 µM (SN12C): < 10%; inhibition at 10 µM (TK-10): < 10%; inhibition at 10 µM (UO-31): 12.1%; inhibition at 10 µM (DU-145): < 10%; inhibition at 10 µM (MCF7): < 10%; inhibition at 10 µM (HS 578T): 10.1%; inhibition at 10 µM (T-47D): < 10%; One-dose activity over the NCI60 panel (NCI60 cell lines panel; 10 μM): inactive; inhibition at 10 µM (NCI60 cell lines panel): < 10%
CN1CCN(c2nc(SCc3ccccc3)nc(-c3ccc(F)cc3)c2C#N)CC1 [4i, 2-(Benzylthio)-4-(4-fluorophenyl)-6-(4-methylpiperazin-1-yl) pyrimidine-5-carbonitrile]	56.4%	20.2%	10.3%	22.7%	< 10%	< 10%	16%	31.7%	13.6%	< 10%	46.8%	19.1%	10%	10%	41%	< 10%	< 10%	27.8%	19.6%	< 10%	GI% (HOP-62; 10 μM one-dose, Table 1): — (GI value > 70%); GI% (NCI-H226; 10 μM one-dose, Table 1): — (GI value > 70%); GI% (SNB-75; 10 μM one-dose, Table 1): — (GI value > 70%); inhibition at 10 µM (OVCAR-5): < 10%; inhibition at 10 µM (OVCAR-8): 14.1%; inhibition at 10 µM (SK-OV-3): < 10%; inhibition at 10 µM (ACHN): 14.8%; inhibition at 10 µM (CAKI-1): 37.9%; GI% (RXF 393; 10 μM one-dose, Table 1): — (GI value > 70%); inhibition at 10 µM (RXF 393): 49.7%; inhibition at 10 µM (SN12C): 12.6%; inhibition at 10 µM (TK-10): < 10%; inhibition at 10 µM (UO-31): 36%; inhibition at 10 µM (DU-145): < 10%; inhibition at 10 µM (MCF7): 30.8%; GI% (HS 578T; 10 μM one-dose, Table 1): — (GI value > 70%); inhibition at 10 µM (HS 578T): 32%; inhibition at 10 µM (T-47D): 42.5%; inhibition at 10 µM (NCI60 cell lines panel): 24.3%
